In patent publication US20160206623A9, “Composition For Prevention of Vasoactivity in the Treatment of Blood Loss and Anemia” (priority 2012, published 2016):

Tested on: segments of the rat thoracic aorta (RTA)
Experiment: Vasoactivity (isometric tension) of rat thoracic aorta rings in tissue bath

Q: Which “vasoconstriction with HES + PHE” value (HES 4.4 uM + PHE, DLT 10^-7 to 10^-5 M (FIG. 8, a2-d2)) does the source give for `COc1ccc([C@@H]2Sc3ccccc3N(CCN(C)C)C(=O)[C@@H]2OC(C)=O)cc1` [DLT, Diltiazam] here?
A: the vasoconstriction is reduced

Q: And the “effect on PHE induced vasoconstriction” value (PHE without hemoglobin, different concentrations of additive (DLT 10^-7 to 10^-5 M))?
A: reduces the vasoconstrictive effect of PHE

Q: With `CNC[C@H](O)c1cccc(O)c1` [PHE, Phenylephrine] as the molecule, how does the “tension of the RTA” value (PHE added after SFH, preliminary experiments) read?
A: increase the tension of the RTA significantly

Q: Which “vasoconstrictive effect of SFH” value (terazosin suboptimal 10^-8 M, SFH+PHE (FIG. 9)) does the source give for `COc1cc2nc(N3CCN(C(=O)C4CCCO4)CC3)nc(N)c2cc1OC` (stereo not shown) [TER, Terazosin] here?
A: reduces the vasoconstrictive effect of SFH
